Key:
[1] = tested on: OCI-AML3 (Acute Myeloid Leukemia); assay: Bliss excess, mean over the matrix (fraction); higher = more synergy
Procedure, shortened: (§1)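 Cell lines in DMEM/F12 or RPMI with 10% FBS were plated in 1536-well plates, held 24 hours at 37°C, 5% CO2, then given two-drug dose matrices for 72 hours (DMSO typically 0.2%). Viability was read by CellTiter-Glo 2.0 luminescence and scaled as inhibition from 0 (vehicle wells) to 1 (blank wells). Combination Emax is the second-highest inhibition in the matrix; Bliss excess is observed combination effect minus expected EA + EB − EA·EB, EA and EB being single-agent effects.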

[2] = tested on: KMS-12-BM (Plasma Cell Myeloma); assay: combination Emax (second highest fraction inhibited in the dose matrix, 72 h); higher = more inhibition; extreme values may be limits of the assay
Procedure, shortened: as §1

[3] = tested on: VMRC-RCZ (Kidney Carcinoma); assay: as above
Procedure, shortened: as §1

[4] = tested on: OCI-AML3 (Acute Myeloid Leukemia); assay: as above
Procedure, shortened: as §1
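For Bliss excess, mean over the matrix in this document: after 72 h of two-drug dosing.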

| SMILES | Bliss excess [1] | combination Emax [2] | combination Emax [3] | combination Emax [4] |
| --- | --- | --- | --- | --- |
| COc1nnc2ccc(N3CCC(c4ccc(OCCN5CCN(C)C(=O)[C@H]5C)cc4)CC3)nn12 [AZD5153] + C[C@@H]1COCCN1C2=NC(=NC(=C2)C3(CC3)[S@](=N)(=O)C)C4=C5C=CNC5=NC=C4 [AZD6738] (first compound max 1 µM, 7x7, partner max 10 µM) | -0.0454 | 1 | 0.58 | 1 |
| Cn1cnc2c(F)c(Nc3ccc(Br)cc3Cl)c(C(=O)NOCCO)cc21 [Selumetinib] + C=CCn1c(=O)c2cnc(Nc3ccc(N4CCN(C)CC4)cc3)nc2n1-c1cccc(C(C)(C)O)n1 [AZD1775] (first compound max 10 µM, partner max 1 µM) | -0.0213 | 0.916 | 0.258 | 0.94 |
| COc1cc2ncnc(Nc3ccc(F)c(Cl)c3)c2cc1OCCCN1CCOCC1 [Gefitinib] + CC(C)n1c(=O)n(C)c2cnc3cc(F)c(-c4ccc(OCCCN5CCCCC5)nc4)cc3c21 [AZD1390] (first compound max 10 µM, 7x7, partner max 0.3 µM) | -0.0457 | 0.308 | 0.11 | 0.059 |
| Cc1nc(Nc2ncc(C(=O)Nc3c(C)cccc3Cl)s2)cc(N2CCN(CCO)CC2)n1 [Dasatinib] + CC(=O)Nc1cccc(-n2c(=O)n(C3CC3)c(=O)c3c(Nc4ccc(I)cc4F)n(C)c(=O)c(C)c32)c1 [Trametinib] (first compound max 2 µM, 7x7, partner max 1 µM) | -0.0745 | 0.396 | 0.454 | 0.942 |
| CC(=O)c1c(C)c2cnc(Nc3ccc(N4CCNCC4)cn3)nc2n(C2CCCC2)c1=O [Palbociclib] + Cn1cnc2c(F)c(Nc3ccc(Br)cc3Cl)c(C(=O)NOCCO)cc21 [Selumetinib] (first compound max 10 µM, 7x7, partner max 10 µM) | 0.0289 | 0.642 | 0.115 | 0.935 |
| NC1(C(=O)N[C@@H](CCO)c2ccc(Cl)cc2)CCN(c2ncnc3[nH]ccc23)CC1 [Capivasertib] + Cn1cnc2c(F)c(Nc3ccc(Br)cc3Cl)c(C(=O)NOCCO)cc21 [Selumetinib] (first compound max 10 µM, 7x7, partner max 10 µM) | -0.0291 | 0.427 | 0.388 | 0.918 |
| NC1(C(=O)N[C@@H](CCO)c2ccc(Cl)cc2)CCN(c2ncnc3[nH]ccc23)CC1 [Capivasertib] + C[C@@H]1COCCN1C2=NC(=NC(=C2)C3(CC3)[S@](=N)(=O)C)C4=C5C=CNC5=NC=C4 [AZD6738] (first compound max 10 µM, 7x7, partner max 10 µM) | -0.0224 | 0.823 | 0.549 | 0.891 |
| NC1(C(=O)N[C@@H](CCO)c2ccc(Cl)cc2)CCN(c2ncnc3[nH]ccc23)CC1 [Capivasertib] + CCN(CCO)CCCOc1ccc2c(Nc3cc(CC(=O)Nc4cccc(F)c4)[nH]n3)ncnc2c1 [AZD2811] (first compound max 10 µM, 7x7, partner max 1 µM) | -0.095 | 0.522 | 0.461 | 0.585 |
| NC1(C(=O)N[C@@H](CCO)c2ccc(Cl)cc2)CCN(c2ncnc3[nH]ccc23)CC1 [Capivasertib] + CC(=O)c1c(C)c2cnc(Nc3ccc(N4CCNCC4)cn3)nc2n(C2CCCC2)c1=O [Palbociclib] (first compound max 10 µM, 7x7, partner max 10 µM) | 0.0866 | 0.734 | 0.401 | 0.587 |
| COc1nnc2ccc(N3CCC(c4ccc(OCCN5CCN(C)C(=O)[C@H]5C)cc4)CC3)nn12 [AZD5153] + Cn1cnc2c(F)c(Nc3ccc(Br)cc3Cl)c(C(=O)NOCCO)cc21 [Selumetinib] (first compound max 1 µM, 7x7, partner max 10 µM) | -0.0046 | 1 | 0.308 | 1 |
| NC1(C(=O)N[C@@H](CCO)c2ccc(Cl)cc2)CCN(c2ncnc3[nH]ccc23)CC1 [Capivasertib] + COc1nnc2ccc(N3CCC(c4ccc(OCCN5CCN(C)C(=O)[C@H]5C)cc4)CC3)nn12 [AZD5153] (first compound max 10 µM, 7x7, partner max 1 µM) | -0.014 | 1 | 0.487 | 1 |
| COc1nnc2ccc(N3CCC(c4ccc(OCCN5CCN(C)C(=O)[C@H]5C)cc4)CC3)nn12 [AZD5153] + C=CCn1c(=O)c2cnc(Nc3ccc(N4CCN(C)CC4)cc3)nc2n1-c1cccc(C(C)(C)O)n1 [AZD1775] (first compound max 1 µM, partner max 1 µM) | -0.012 | 1 | 0.489 | 1 |
| CS(=O)(=O)CCNCc1ccc(-c2ccc3ncnc(Nc4ccc(OCc5cccc(F)c5)c(Cl)c4)c3c2)o1 [Lapatinib] + Cn1cnc2c(F)c(Nc3ccc(Br)cc3Cl)c(C(=O)NOCCO)cc21 [Selumetinib] (first compound max 10 µM, 7x7, partner max 10 µM) | -0.0562 |  | 0.257 | 0.879 |
| Cn1cnc2c(F)c(Nc3ccc(Br)cc3Cl)c(C(=O)NOCCO)cc21 [Selumetinib] + C[C@@H]1COCCN1C2=NC(=NC(=C2)C3(CC3)[S@](=N)(=O)C)C4=C5C=CNC5=NC=C4 [AZD6738] (first compound max 10 µM, 7x7, partner max 10 µM) | -0.0941 | 0.865 | 0.217 | 0.943 |
| COc1nnc2ccc(N3CCC(c4ccc(OCCN5CCN(C)C(=O)[C@H]5C)cc4)CC3)nn12 [AZD5153] + CC1(C)CCC(CN2CCN(c3ccc(C(=O)NS(=O)(=O)c4ccc(NCC5CCOCC5)c([N+](=O)[O-])c4)c(Oc4cnc5[nH]ccc5c4)c3)CC2)=C(c2ccc(Cl)cc2)C1 [Venetoclax] (first compound max 1 µM, 7x7, partner max 1 µM) | -0.052 | 1 | 0.258 | 1 |
| Cn1cnc2c(F)c(Nc3ccc(Br)cc3Cl)c(C(=O)NOCCO)cc21 [Selumetinib] + CC(C)n1c(=O)n(C)c2cnc3cc(F)c(-c4ccc(OCCCN5CCCCC5)nc4)cc3c21 [AZD1390] (first compound max 10 µM, 7x7, partner max 0.3 µM) | -0.0696 | 0.295 | 0.101 | 0.909 |
| NC1(C(=O)N[C@@H](CCO)c2ccc(Cl)cc2)CCN(c2ncnc3[nH]ccc23)CC1 [Capivasertib] + CC(C)n1c(=O)n(C)c2cnc3cc(F)c(-c4ccc(OCCCN5CCCCC5)nc4)cc3c21 [AZD1390] (first compound max 10 µM, 7x7, partner max 0.3 µM) | -0.11 | 0.415 | 0.372 | 0.37 |
| C[C@@H](c1ccc2nccn2c1)n1nnc2ncc(-c3cnn(C)c3)nc21 [Savolitinib] + CC1(C)CCC(CN2CCN(c3ccc(C(=O)NS(=O)(=O)c4ccc(NCC5CCOCC5)c([N+](=O)[O-])c4)c(Oc4cnc5[nH]ccc5c4)c3)CC2)=C(c2ccc(Cl)cc2)C1 [Venetoclax] (first compound max 1 µM, 7x7, partner max 1 µM) | -0.0358 | 0.97 | 0.152 | 0.154 |
| CN(CCO)CC[C@H](CSc1ccccc1)Nc1ccc(S(=O)(=O)NC(=O)c2ccc(N3CCC([C@@H](O)c4ccccc4-c4ccc(Cl)cc4)CC3)cc2)cc1S(=O)(=O)C(F)(F)F [AZD4320] + Cn1cnc2c(F)c(Nc3ccc(Br)cc3Cl)c(C(=O)NOCCO)cc21 [Selumetinib] (first compound max 1 µM, 7x7, partner max 3 µM) |  | 1 | 0.238 |  |
| CCN(CCO)CCCOc1ccc2c(Nc3cc(CC(=O)Nc4cccc(F)c4)[nH]n3)ncnc2c1 [AZD2811] + C[C@@H]1COCCN1C2=NC(=NC(=C2)C3(CC3)[S@](=N)(=O)C)C4=C5C=CNC5=NC=C4 [AZD6738] (first compound max 1 µM, 7x7, partner max 10 µM) |  | 0.941 | 0.279 |  |
| Cc1cc2ncnn2cc1Nc1ncc2c(n1)n(C1CCOCC1)c(=O)n2C [AZD7648] + CN(C)CCCOc1ccc(-c2ccc3ncc4c(c3c2)n(C2CCOCC2)c(=O)n4C)cn1 [AZD0156] (first compound max 10 µM, 7x7, partner max 1 µM) |  | 0.49 | 0.256 |  |
| CC1(C)CCC(CN2CCN(c3ccc(C(=O)NS(=O)(=O)c4ccc(NCC5CCOCC5)c([N+](=O)[O-])c4)c(Oc4cnc5[nH]ccc5c4)c3)CC2)=C(c2ccc(Cl)cc2)C1 [Venetoclax] + CN(C)CCCOc1ccc(-c2ccc3ncc4c(c3c2)n(C2CCOCC2)c(=O)n4C)cn1 [AZD0156] (first compound max 1 µM, 7x7, partner max 1 µM) |  | 1 | 0.14 |  |
| C=CCn1c(=O)c2cnc(Nc3ccc(N4CCN(C)CC4)cc3)nc2n1-c1cccc(C(C)(C)O)n1 [AZD1775] + C[C@@H]1COCCN1C2=NC(=NC(=C2)C3(CC3)[S@](=N)(=O)C)C4=C5C=CNC5=NC=C4 [AZD6738] (first compound max 1 µM, partner max 10 µM) |  | 1 | 0.41 |  |
| CC1(C)CCC(CN2CCN(c3ccc(C(=O)NS(=O)(=O)c4ccc(NCC5CCOCC5)c([N+](=O)[O-])c4)c(Oc4cnc5[nH]ccc5c4)c3)CC2)=C(c2ccc(Cl)cc2)C1 [Venetoclax] + C[C@@H](Nc1cc(F)cc(F)c1)c1cc(C(=O)N(C)C)cc2c(=O)cc(N3CCOCC3)oc12 [AZD8186] (first compound max 1 µM, 7x7, partner max 3 µM) |  | 1 | 0.201 |  |
| CN(CCO)CC[C@H](CSc1ccccc1)Nc1ccc(S(=O)(=O)NC(=O)c2ccc(N3CCC([C@@H](O)c4ccccc4-c4ccc(Cl)cc4)CC3)cc2)cc1S(=O)(=O)C(F)(F)F [AZD4320] + C[C@@H]1COCCN1C2=NC(=NC(=C2)C3(CC3)[S@](=N)(=O)C)C4=C5C=CNC5=NC=C4 [AZD6738] (first compound max 1 µM, 7x7, partner max 10 µM) |  | 1 | 0.566 |  |
| CC1(C)CCC(CN2CCN(c3ccc(C(=O)NS(=O)(=O)c4ccc(NCC5CCOCC5)c([N+](=O)[O-])c4)c(Oc4cnc5[nH]ccc5c4)c3)CC2)=C(c2ccc(Cl)cc2)C1 [Venetoclax] + CCN(CCO)CCCOc1ccc2c(Nc3cc(CC(=O)Nc4cccc(F)c4)[nH]n3)ncnc2c1 [AZD2811] (first compound max 1 µM, 7x7, partner max 1 µM) |  | 1 | 0.178 |  |
